The term IC50 denotes the concentration that inhibits the measured activity by half. Read a low IC50 as inhibition by little substance.

Consider nine molecules from ChEMBL document CHEMBL3217668, “3-Formylchromone based topoisomerase II inhibitors: discovery of potent leads” (Medchemcomm, 2013).

The subject of assay [1] is PC-3. Nature of the assay: Cytotoxicity against human PC3 cells assessed as cell survival after 48 hrs by MTT assay. Particulars: PC-3, 48 h, read-out: LC50 (the source's name). It is filed as functional. (Formazan colour is commonly taken as a measure of viable cells.)
Assay [2] has as its system Nucleic Acid. Put plainly: Binding affinity to Escherichia coli plasmid DNA assessed as intercalation at 100 uM after 20 mins by agarose gel electrophoresis. In kind it is nucleic-acid assay.
In assay [3] the target is T1, DNA topoisomerase 2-alpha (Homo sapiens, UniProt P11388). Put plainly: Inhibition of human topoisomerase-2alpha-mediated supercoiled pRYG DNA relaxation at 100 uM after 30 mins by agarose gel electrophoresis.
The target in assay [4] is T1, DNA topoisomerase 2-alpha. Put plainly: Inhibition of human topoisomerase-2alpha-mediated kDNA decatenation at 100 uM after 30 mins by agarose gel electrophoresis.
Assay [5] deals with T1, DNA topoisomerase 2-alpha. Put plainly: Inhibition of human topoisomerase-2alpha-mediated kDNA decatenation after 30 mins by agarose gel electrophoresis.
For assay [6], the system named is Nucleic Acid. Nature of the assay: Binding affinity to Escherichia coli plasmid DNA assessed as intercalation at 1 ug/mL after 20 mins by agarose gel electrophoresis. It is filed as nucleic-acid assay.

Structures are written as SMILES. Active and inactive are the calls of the source. No cut-off for these calls is given here.

T1 sequence (P11388 whole entry): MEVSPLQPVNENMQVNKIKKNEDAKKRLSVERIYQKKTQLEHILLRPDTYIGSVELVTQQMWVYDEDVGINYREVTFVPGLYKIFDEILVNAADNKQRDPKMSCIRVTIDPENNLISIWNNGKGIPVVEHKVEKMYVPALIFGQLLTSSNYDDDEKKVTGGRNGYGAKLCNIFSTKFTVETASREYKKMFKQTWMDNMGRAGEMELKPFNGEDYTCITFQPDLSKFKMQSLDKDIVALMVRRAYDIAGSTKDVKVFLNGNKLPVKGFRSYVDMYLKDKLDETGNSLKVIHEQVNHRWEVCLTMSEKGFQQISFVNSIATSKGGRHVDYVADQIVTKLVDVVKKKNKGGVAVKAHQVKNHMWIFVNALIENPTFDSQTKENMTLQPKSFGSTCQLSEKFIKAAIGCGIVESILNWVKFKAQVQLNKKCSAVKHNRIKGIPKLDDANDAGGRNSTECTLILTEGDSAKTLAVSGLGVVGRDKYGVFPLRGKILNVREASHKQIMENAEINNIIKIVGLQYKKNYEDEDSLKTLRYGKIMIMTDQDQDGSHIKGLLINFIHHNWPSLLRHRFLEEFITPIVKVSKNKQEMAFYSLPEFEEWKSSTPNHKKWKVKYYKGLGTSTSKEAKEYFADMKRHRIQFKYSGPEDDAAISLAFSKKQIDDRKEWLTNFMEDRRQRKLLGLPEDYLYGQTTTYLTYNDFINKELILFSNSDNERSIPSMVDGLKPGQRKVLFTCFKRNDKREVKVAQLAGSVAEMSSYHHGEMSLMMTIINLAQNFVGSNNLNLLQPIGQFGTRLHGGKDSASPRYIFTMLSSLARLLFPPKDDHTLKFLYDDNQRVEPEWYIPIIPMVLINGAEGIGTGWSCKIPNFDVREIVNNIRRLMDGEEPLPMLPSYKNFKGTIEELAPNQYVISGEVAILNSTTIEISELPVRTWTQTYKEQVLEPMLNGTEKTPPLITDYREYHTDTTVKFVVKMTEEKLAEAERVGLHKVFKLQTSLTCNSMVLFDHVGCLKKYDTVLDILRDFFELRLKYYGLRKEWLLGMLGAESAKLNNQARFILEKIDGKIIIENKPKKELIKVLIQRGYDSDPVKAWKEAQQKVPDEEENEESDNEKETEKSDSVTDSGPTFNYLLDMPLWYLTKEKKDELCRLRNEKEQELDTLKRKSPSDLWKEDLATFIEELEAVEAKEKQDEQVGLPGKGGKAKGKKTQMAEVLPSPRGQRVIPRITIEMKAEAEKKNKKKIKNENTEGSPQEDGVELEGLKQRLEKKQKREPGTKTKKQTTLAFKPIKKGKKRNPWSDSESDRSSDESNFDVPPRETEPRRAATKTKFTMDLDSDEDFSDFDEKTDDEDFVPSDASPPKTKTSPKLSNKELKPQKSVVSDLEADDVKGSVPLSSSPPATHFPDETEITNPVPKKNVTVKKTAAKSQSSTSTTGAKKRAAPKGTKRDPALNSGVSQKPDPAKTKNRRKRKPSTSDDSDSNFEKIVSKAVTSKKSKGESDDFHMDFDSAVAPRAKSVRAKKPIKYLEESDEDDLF

In the case of `O=Cc1c(Nc2ccccc2)oc2ccc(F)cc2c1=O`, in assay [1], the CC50 was found to be 8.6 µM. For the same molecule, the outcome in assay [2] was inactive. Moreover, the inhibition entry in assay [3] and in assay [4] was “Active” throughout.

For `O=Cc1coc2ccc(Cl)cc2c1=O`, in assay [1], the CC50 worked out at 5.7 µM. For the same molecule, the outcome in assay [2] was inactive. Moreover, the inhibition entry in assay [3] and in assay [4] was “Active” each time.

Molecule `CN(c1ccccc1)c1oc2ccccc2c(=O)c1C=O` yielded an IC50 in assay [5] of 67.9 µM. For the same molecule, in assay [1], the CC50 was 0.5 µM. In assay [2], the result was inactive. In addition, the inhibition result in assay [3] is “Active”.

As for `O=Cc1c(Nc2ccccc2)oc2ccccc2c1=O`, in assay [1], the CC50 was 8.2 µM. The outcome in assay [2] was inactive. The inhibition result in assay [3] and in assay [4] was “Active” each time.

On to `CC[n+]1c(-c2ccccc2)c2cc(N)ccc2c2ccc(N)cc21`, for which, in assay [6], the outcome was Active.

On to `CN(c1ccccc1)c1oc2ccc(Cl)cc2c(=O)c1C=O`, for which, in assay [1], the CC50 was 2.1 µM. Besides, in assay [2], the outcome was inactive. Besides, the inhibition result in assay [3] and in assay [4] was “Active” in each case.

As to `O=Cc1c(Nc2ccccc2)oc2cc(Cl)ccc2c1=O`, the CC50 in assay [1] turned out to be 2.5 µM. For the same molecule, the outcome in assay [2] was inactive. The inhibition entry in assay [3] and in assay [4] was “Active” each time.

On to `O=Cc1c(Nc2ccccc2)oc2ccc(Cl)cc2c1=O`, for which the CC50 in assay [1] turned out to be 8.3 µM. In assay [2], the outcome was inactive. Besides, the inhibition entry in assay [3] and in assay [4] was “Active” in each case.

In the case of `COc1cc([C@@H]2c3cc4c(cc3[C@@H](O[C@@H]3O[C@@H]5CO[C@@H](C)O[C@H]5[C@H](O)[C@H]3O)[C@H]3COC(=O)[C@H]23)OCO4)cc(OC)c1O` [ETOPOSIDE], the CC50 in assay [1] was 7.5 µM. Also, in assay [2], the result was inactive. Also, the inhibition entry in assay [3] and in assay [4] was “Active” each time.
